{
  "source": "the kinase profiling compilation of Christmann-Franck et al. (2016)",
  "assay_in_all_cases": "radiometric filter-binding kinase assay, Kinaseprofiler",
  "key": {"MAP2K1 (human)": {"target": "MAP2K1 (human) (UniProt Q02750)", "conditions": "ATP 10 µM"}, "DAPK1 (human)": {"target": "DAPK1 (human) (UniProt P53355)", "conditions": "ATP 70 µM"}, "GRK5 (human)": {"target": "GRK5 (human) (UniProt P34947)", "conditions": "ATP 15 µM"}, "PAK4 (human)": {"target": "PAK4 (human) (UniProt O96013)", "conditions": "ATP 10 µM"}, "EPHA1 (human)": {"target": "EPHA1 (human) (UniProt P21709)", "conditions": "ATP 45 µM"}, "MAPK3 (human)": {"target": "MAPK3 (human) (UniProt P27361)", "conditions": "ATP 70 µM"}, "SRPK3 (human)": {"target": "SRPK3 (human) (UniProt Q9UPE1)", "conditions": "ATP 15 µM"}, "KIT (human)": {"target": "KIT (human) (UniProt P10721)", "sequence (P10721 whole entry, looked up)": "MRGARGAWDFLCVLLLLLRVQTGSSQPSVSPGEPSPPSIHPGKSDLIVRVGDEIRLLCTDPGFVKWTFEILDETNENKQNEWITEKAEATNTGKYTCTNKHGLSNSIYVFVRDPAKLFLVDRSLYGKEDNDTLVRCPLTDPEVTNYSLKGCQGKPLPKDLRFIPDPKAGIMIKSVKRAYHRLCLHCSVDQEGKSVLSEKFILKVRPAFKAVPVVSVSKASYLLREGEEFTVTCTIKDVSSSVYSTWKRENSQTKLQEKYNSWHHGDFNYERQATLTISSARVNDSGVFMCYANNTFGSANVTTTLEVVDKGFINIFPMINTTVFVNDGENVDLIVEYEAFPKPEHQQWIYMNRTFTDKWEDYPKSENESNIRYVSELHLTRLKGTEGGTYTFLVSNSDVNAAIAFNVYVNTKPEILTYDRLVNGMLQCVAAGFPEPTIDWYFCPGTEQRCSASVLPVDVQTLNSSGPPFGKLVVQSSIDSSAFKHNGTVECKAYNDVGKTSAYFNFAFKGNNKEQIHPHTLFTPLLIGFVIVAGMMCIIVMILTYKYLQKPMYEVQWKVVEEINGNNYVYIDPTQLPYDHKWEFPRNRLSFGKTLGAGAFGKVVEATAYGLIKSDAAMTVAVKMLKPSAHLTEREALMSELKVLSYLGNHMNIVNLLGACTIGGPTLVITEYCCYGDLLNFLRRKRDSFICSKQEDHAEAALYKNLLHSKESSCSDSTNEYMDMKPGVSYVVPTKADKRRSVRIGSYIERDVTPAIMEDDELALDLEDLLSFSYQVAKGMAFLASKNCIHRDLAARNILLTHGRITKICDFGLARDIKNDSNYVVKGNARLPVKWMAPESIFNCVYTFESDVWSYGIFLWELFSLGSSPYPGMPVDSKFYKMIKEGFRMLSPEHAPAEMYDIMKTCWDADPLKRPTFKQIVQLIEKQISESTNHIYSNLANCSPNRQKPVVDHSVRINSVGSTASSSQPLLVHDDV", "conditions": "ATP 200 µM"}, "PIM3 (human)": {"target": "PIM3 (human) (UniProt Q86V86)", "conditions": "ATP 155 µM"}, "CDK7 CCNH MNAT1 (human)": {"target": "CDK7 CCNH MNAT1 (human) (UniProt P50613+P51948+P51946)", "conditions": "ATP 90 µM"}, "TSSK1B (human)": {"target": "TSSK1B (human) (UniProt Q9BXA7)", "conditions": "ATP 15 µM"}, "CAMK2G (human)": {"target": "CAMK2G (human) (UniProt Q13555)", "conditions": "ATP 10 µM"}, "MAPK11 (human)": {"target": "MAPK11 (human) (UniProt Q15759)", "conditions": "ATP 45 µM"}, "MAP3K5 (human)": {"target": "MAP3K5 (human) (UniProt Q99683)", "sequence (Q99683 whole entry, looked up)": "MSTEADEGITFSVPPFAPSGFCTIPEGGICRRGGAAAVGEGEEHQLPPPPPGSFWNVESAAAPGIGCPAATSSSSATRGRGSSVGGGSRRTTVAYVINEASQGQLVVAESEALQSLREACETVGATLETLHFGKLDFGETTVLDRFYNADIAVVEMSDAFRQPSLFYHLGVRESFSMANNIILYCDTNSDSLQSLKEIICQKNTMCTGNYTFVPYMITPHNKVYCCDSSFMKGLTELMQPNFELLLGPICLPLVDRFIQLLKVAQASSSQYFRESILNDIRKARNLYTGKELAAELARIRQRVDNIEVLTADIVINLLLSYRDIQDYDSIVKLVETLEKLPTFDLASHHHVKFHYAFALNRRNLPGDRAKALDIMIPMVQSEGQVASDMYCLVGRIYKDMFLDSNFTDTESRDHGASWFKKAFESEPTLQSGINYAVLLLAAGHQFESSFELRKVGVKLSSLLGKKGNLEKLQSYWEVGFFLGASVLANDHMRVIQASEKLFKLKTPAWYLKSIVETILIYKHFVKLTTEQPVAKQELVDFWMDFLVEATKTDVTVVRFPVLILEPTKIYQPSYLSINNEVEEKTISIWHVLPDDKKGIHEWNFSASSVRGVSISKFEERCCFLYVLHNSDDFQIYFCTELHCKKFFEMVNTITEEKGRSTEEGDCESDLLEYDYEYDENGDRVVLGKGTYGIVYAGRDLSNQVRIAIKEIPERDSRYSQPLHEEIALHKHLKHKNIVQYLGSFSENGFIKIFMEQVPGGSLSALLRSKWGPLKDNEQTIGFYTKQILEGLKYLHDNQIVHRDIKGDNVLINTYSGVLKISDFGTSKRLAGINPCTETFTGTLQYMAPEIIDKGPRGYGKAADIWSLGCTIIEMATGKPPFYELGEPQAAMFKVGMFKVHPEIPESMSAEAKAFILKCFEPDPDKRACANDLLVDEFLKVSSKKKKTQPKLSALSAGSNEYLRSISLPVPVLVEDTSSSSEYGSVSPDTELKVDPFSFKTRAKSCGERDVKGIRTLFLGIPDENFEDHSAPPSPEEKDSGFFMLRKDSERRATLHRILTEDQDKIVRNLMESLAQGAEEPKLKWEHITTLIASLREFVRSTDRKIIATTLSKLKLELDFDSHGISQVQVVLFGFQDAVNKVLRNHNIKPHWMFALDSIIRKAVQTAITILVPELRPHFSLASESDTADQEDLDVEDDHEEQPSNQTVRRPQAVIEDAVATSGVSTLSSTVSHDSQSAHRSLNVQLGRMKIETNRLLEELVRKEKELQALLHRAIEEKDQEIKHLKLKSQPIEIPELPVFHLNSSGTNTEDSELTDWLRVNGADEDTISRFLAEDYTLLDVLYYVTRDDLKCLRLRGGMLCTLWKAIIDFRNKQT", "conditions": "ATP 200 µM"}, "LIMK1 (human)": {"target": "LIMK1 (human) (UniProt P53667)", "conditions": "ATP 15 µM"}, "WNK2 (human)": {"target": "WNK2 (human) (UniProt Q9Y3S1)", "conditions": "ATP 200 µM"}, "PRKX (human)": {"target": "PRKX (human) (UniProt P51817)", "conditions": "ATP 200 µM"}, "IRAK1 (human)": {"target": "IRAK1 (human) (UniProt P51617)", "conditions": "ATP 45 µM"}, "TXK (human)": {"target": "TXK (human) (UniProt P42681)", "conditions": "ATP 200 µM"}, "MTOR (human)": {"target": "MTOR (human) (UniProt P42345)", "conditions": "ATP 70 µM"}, "MAP3K9 (human)": {"target": "MAP3K9 (human) (UniProt P80192)", "conditions": "ATP 45 µM"}, "PLK1 (human)": {"target": "PLK1 (human) (UniProt P53350)", "conditions": "ATP 70 µM"}, "[1]": {"target": "CSNK2A1 CSNK2B CSNK2A2 (human) (UniProt P19784+P68400+P67870)", "conditions": "ATP 15 µM"}, "PAK6 (human)": {"target": "PAK6 (human) (UniProt Q9NQU5)", "conditions": "ATP 10 µM"}, "PRKACA (human)": {"target": "PRKACA (human) (UniProt P17612)", "conditions": "ATP 10 µM"}, "SIK1 (human)": {"target": "SIK1 (human) (UniProt P57059)", "conditions": "ATP 45 µM"}, "ALK (human)": {"target": "ALK (human) (UniProt Q9UM73)", "sequence (Q9UM73 whole entry, looked up)": "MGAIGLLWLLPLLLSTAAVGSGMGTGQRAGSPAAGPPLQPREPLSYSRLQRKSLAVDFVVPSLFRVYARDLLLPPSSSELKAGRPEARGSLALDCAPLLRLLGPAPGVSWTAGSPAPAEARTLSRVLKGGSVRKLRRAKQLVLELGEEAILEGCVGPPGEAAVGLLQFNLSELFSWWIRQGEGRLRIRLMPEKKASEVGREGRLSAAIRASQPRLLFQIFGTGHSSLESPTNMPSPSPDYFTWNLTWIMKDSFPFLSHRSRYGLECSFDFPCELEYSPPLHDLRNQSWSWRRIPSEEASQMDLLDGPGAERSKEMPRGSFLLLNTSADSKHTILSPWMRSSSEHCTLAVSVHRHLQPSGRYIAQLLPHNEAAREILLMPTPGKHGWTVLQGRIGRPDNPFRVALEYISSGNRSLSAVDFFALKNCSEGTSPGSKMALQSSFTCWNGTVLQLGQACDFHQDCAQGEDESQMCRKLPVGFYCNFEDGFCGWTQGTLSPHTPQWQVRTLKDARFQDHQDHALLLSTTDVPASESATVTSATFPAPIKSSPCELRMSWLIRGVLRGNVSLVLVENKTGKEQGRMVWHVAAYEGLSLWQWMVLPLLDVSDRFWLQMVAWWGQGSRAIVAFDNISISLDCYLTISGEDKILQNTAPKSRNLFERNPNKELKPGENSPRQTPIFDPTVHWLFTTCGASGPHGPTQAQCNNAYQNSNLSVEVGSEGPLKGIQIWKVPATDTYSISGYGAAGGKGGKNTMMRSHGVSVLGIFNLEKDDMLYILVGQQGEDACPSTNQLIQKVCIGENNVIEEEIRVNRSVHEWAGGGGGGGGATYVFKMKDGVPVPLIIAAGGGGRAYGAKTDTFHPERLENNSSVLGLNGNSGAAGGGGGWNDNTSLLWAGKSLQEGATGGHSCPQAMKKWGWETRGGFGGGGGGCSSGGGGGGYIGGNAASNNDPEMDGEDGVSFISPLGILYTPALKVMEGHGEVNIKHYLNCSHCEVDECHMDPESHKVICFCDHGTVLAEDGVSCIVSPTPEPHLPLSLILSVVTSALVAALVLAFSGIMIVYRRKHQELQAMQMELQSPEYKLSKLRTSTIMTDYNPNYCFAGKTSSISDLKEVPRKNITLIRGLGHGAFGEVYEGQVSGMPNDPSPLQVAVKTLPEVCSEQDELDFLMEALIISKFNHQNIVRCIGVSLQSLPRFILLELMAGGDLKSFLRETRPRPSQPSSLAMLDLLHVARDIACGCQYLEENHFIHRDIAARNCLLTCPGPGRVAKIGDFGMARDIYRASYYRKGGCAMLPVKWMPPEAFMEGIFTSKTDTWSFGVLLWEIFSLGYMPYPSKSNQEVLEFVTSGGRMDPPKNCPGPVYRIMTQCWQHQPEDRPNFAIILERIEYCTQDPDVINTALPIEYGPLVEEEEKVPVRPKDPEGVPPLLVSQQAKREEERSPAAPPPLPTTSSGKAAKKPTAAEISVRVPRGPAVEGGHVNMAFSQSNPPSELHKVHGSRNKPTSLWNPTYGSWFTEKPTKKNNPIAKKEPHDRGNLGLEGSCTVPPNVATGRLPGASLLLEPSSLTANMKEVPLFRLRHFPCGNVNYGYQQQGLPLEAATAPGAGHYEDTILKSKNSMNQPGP", "conditions": "ATP 200 µM"}, "CSNK1D (rat)": {"test_system": "CSNK1D (rat)", "conditions": "accession and sequence are those of the human protein"}, "NEK7 (human)": {"target": "NEK7 (human) (UniProt Q8TDX7)", "conditions": "ATP 45 µM"}, "CAMK2D (human)": {"target": "CAMK2D (human) (UniProt Q13557)", "conditions": "ATP 10 µM"}, "MELK (human)": {"target": "MELK (human) (UniProt Q14680)", "sequence (Q14680 whole entry, looked up)": "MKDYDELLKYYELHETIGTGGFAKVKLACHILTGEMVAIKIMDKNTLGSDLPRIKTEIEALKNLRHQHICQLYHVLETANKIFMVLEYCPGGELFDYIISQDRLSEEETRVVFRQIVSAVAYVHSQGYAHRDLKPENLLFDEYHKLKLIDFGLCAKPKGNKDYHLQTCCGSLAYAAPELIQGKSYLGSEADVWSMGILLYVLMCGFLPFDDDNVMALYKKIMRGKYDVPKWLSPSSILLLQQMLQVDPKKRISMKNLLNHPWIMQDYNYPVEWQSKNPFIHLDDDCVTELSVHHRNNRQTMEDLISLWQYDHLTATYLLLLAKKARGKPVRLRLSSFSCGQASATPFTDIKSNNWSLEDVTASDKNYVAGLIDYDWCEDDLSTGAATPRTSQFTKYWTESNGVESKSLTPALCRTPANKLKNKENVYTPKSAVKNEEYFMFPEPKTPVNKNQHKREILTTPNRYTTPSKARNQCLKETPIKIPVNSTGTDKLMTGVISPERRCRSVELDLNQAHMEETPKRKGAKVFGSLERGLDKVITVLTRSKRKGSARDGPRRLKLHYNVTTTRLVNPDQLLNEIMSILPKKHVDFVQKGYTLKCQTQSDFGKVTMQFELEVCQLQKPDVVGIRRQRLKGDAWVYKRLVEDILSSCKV", "conditions": "ATP 45 µM"}, "YES1 (human)": {"target": "YES1 (human) (UniProt P07947)", "conditions": "ATP 45 µM"}, "BTK (human)": {"target": "BTK (human) (UniProt Q06187)", "conditions": "ATP 200 µM"}},
  "data": [
    {"compound": "O=C1c2ccccc2-c2n[nH]c3cccc1c23", "values": [
      {"measurement": "residual activity", "setting": "MAP2K1 (human); compound 1.0 µM", "value": 75, "unit": "%"},
      {"measurement": "residual activity", "setting": "MAP2K1 (human); compound 10.0 µM", "value": 50, "unit": "%"},
      {"measurement": "residual activity", "setting": "DAPK1 (human); compound 1.0 µM", "value": 91, "unit": "%"},
      {"measurement": "residual activity", "setting": "DAPK1 (human); compound 10.0 µM", "value": 68, "unit": "%"},
      {"measurement": "residual activity", "setting": "GRK5 (human); compound 1.0 µM", "value": 84, "unit": "%"},
      {"measurement": "residual activity", "setting": "GRK5 (human); compound 10.0 µM", "value": 63, "unit": "%"},
      {"measurement": "residual activity", "setting": "PAK4 (human); compound 1.0 µM", "value": 88, "unit": "%"},
      {"measurement": "residual activity", "setting": "PAK4 (human); compound 10.0 µM", "value": 45, "unit": "%"},
      {"measurement": "residual activity", "setting": "EPHA1 (human); compound 1.0 µM", "value": 67, "unit": "%"},
      {"measurement": "residual activity", "setting": "EPHA1 (human); compound 10.0 µM", "value": 42, "unit": "%"},
      {"measurement": "residual activity", "setting": "MAPK3 (human); compound 1.0 µM", "value": 59, "unit": "%"},
      {"measurement": "residual activity", "setting": "MAPK3 (human); compound 10.0 µM", "value": 72, "unit": "%"},
      {"measurement": "residual activity", "setting": "SRPK3 (human); compound 1.0 µM", "value": 90, "unit": "%"},
      {"measurement": "residual activity", "setting": "SRPK3 (human); compound 10.0 µM", "value": 82, "unit": "%"},
      {"measurement": "residual activity", "setting": "KIT (human); compound 1.0 µM", "value": 91, "unit": "%"},
      {"measurement": "residual activity", "setting": "KIT (human); compound 10.0 µM", "value": 30, "unit": "%"},
      {"measurement": "residual activity", "setting": "PIM3 (human); compound 1.0 µM", "value": 75, "unit": "%"},
      {"measurement": "residual activity", "setting": "PIM3 (human); compound 10.0 µM", "value": 59, "unit": "%"},
      {"measurement": "residual activity", "setting": "CDK7 CCNH MNAT1 (human); compound 1.0 µM", "value": 75, "unit": "%"},
      {"measurement": "residual activity", "setting": "CDK7 CCNH MNAT1 (human); compound 10.0 µM", "value": 24, "unit": "%"},
      {"measurement": "residual activity", "setting": "TSSK1B (human); compound 1.0 µM", "value": 75, "unit": "%"},
      {"measurement": "residual activity", "setting": "TSSK1B (human); compound 10.0 µM", "value": 49, "unit": "%"},
      {"measurement": "residual activity", "setting": "CAMK2G (human); compound 1.0 µM", "value": 37, "unit": "%"},
      {"measurement": "residual activity", "setting": "CAMK2G (human); compound 10.0 µM", "value": 8, "unit": "%"},
      {"measurement": "residual activity", "setting": "MAPK11 (human); compound 1.0 µM", "value": 88, "unit": "%"},
      {"measurement": "residual activity", "setting": "MAPK11 (human); compound 10.0 µM", "value": 79, "unit": "%"},
      {"measurement": "residual activity", "setting": "MAP3K5 (human); compound 1.0 µM", "value": 36, "unit": "%"},
      {"measurement": "residual activity", "setting": "MAP3K5 (human); compound 10.0 µM", "value": 5, "unit": "%"},
      {"measurement": "residual activity", "setting": "LIMK1 (human); compound 1.0 µM", "value": 64, "unit": "%"},
      {"measurement": "residual activity", "setting": "LIMK1 (human); compound 10.0 µM", "value": 30, "unit": "%"},
      {"measurement": "residual activity", "setting": "WNK2 (human); compound 1.0 µM", "value": 79, "unit": "%"},
      {"measurement": "residual activity", "setting": "WNK2 (human); compound 10.0 µM", "value": 77, "unit": "%"},
      {"measurement": "residual activity", "setting": "PRKX (human); compound 1.0 µM", "value": 86, "unit": "%"},
      {"measurement": "residual activity", "setting": "PRKX (human); compound 10.0 µM", "value": 70, "unit": "%"},
      {"measurement": "residual activity", "setting": "IRAK1 (human); compound 1.0 µM", "value": 69, "unit": "%"},
      {"measurement": "residual activity", "setting": "IRAK1 (human); compound 10.0 µM", "value": 42, "unit": "%"},
      {"measurement": "residual activity", "setting": "TXK (human); compound 1.0 µM", "value": 58, "unit": "%"},
      {"measurement": "residual activity", "setting": "TXK (human); compound 10.0 µM", "value": 23, "unit": "%"},
      {"measurement": "residual activity", "setting": "MTOR (human); compound 1.0 µM", "value": 104, "unit": "%"},
      {"measurement": "residual activity", "setting": "MTOR (human); compound 10.0 µM", "value": 77, "unit": "%"},
      {"measurement": "residual activity", "setting": "MAP3K9 (human); compound 1.0 µM", "value": 13, "unit": "%"},
      {"measurement": "residual activity", "setting": "MAP3K9 (human); compound 10.0 µM", "value": 4, "unit": "%"},
      {"measurement": "residual activity", "setting": "PLK1 (human); compound 1.0 µM", "value": 69, "unit": "%"},
      {"measurement": "residual activity", "setting": "PLK1 (human); compound 10.0 µM", "value": 64, "unit": "%"},
      {"measurement": "residual activity", "setting": "[1]; compound 1.0 µM", "value": 60, "unit": "%"},
      {"measurement": "residual activity", "setting": "[1]; compound 10.0 µM", "value": 19, "unit": "%"},
      {"measurement": "residual activity", "setting": "PAK6 (human); compound 1.0 µM", "value": 91, "unit": "%"},
      {"measurement": "residual activity", "setting": "PAK6 (human); compound 10.0 µM", "value": 49, "unit": "%"},
      {"measurement": "residual activity", "setting": "PRKACA (human); compound 1.0 µM", "value": 89, "unit": "%"},
      {"measurement": "residual activity", "setting": "PRKACA (human); compound 10.0 µM", "value": 73, "unit": "%"},
      {"measurement": "residual activity", "setting": "SIK1 (human); compound 1.0 µM", "value": 96, "unit": "%"},
      {"measurement": "residual activity", "setting": "SIK1 (human); compound 10.0 µM", "value": 48, "unit": "%"},
      {"measurement": "residual activity", "setting": "ALK (human); compound 1.0 µM", "value": 61, "unit": "%"},
      {"measurement": "residual activity", "setting": "ALK (human); compound 10.0 µM", "value": 29, "unit": "%"},
      {"measurement": "residual activity", "setting": "CSNK1D (rat); compound 1.0 µM", "value": 5, "unit": "%"},
      {"measurement": "residual activity", "setting": "CSNK1D (rat); compound 10.0 µM", "value": 1, "unit": "%"},
      {"measurement": "residual activity", "setting": "NEK7 (human); compound 1.0 µM", "value": 99, "unit": "%"},
      {"measurement": "residual activity", "setting": "NEK7 (human); compound 10.0 µM", "value": 89, "unit": "%"},
      {"measurement": "residual activity", "setting": "CAMK2D (human); compound 1.0 µM", "value": 43, "unit": "%"},
      {"measurement": "residual activity", "setting": "CAMK2D (human); compound 10.0 µM", "value": 8, "unit": "%"},
      {"measurement": "residual activity", "setting": "MELK (human); compound 1.0 µM", "value": 13, "unit": "%"},
      {"measurement": "residual activity", "setting": "MELK (human); compound 10.0 µM", "value": 0, "unit": "%"},
      {"measurement": "residual activity", "setting": "YES1 (human); compound 1.0 µM", "value": 98, "unit": "%"},
      {"measurement": "residual activity", "setting": "YES1 (human); compound 10.0 µM", "value": 51, "unit": "%"},
      {"measurement": "residual activity", "setting": "BTK (human); compound 1.0 µM", "value": 88, "unit": "%"},
      {"measurement": "residual activity", "setting": "BTK (human); compound 10.0 µM", "value": 57, "unit": "%"}
    ]}
  ]
}
